Measured values published in patent publication US20200323991A1, “PBD CONJUGATES FOR TREATING DISEASES” (ENDOCYTE, INC., priority 2016, published 2020).
Like-named read-outs stand apart in the source and are kept apart here.

Key:
KB tumor = assay: Antitumor activity in large KB tumor model; format: in vivo, mice; settings: for PRs (partial responses) / cures / complete responses: once a week for two weeks
Experimental: Female Balb/c nu/nu mice were fed ad libitum with folate-deficient chow (Harlan diet #TD01013) for the duration of the experiment. KB tumor cells were inoculated subcutaneously at the right flank of each mouse. Mice were dosed after the tumors reached an average of 100 and 180 mm^3 through the lateral tail vein under sterile conditions in a volume of […] of phosphate-buffered saline (PBS).
Growth of each s.c. tumor was followed by measuring the tumor two times per week. Tumors were measured in two perpendicular directions using Vernier calipers, and their volumes were calculated as 0.5×L×W^2, where L=measurement of longest axis in mm and W=measurement of axis perpendicular to L in mm.

KB cells = format: cell-based, human; settings: read-out: IC50 value, 3H-thymidine incorporation
Experimental: The conjugates described herein were evaluated using an in vitro cytotoxicity assay that predicted the ability of the drug to inhibit the growth of the corresponding targeted cells, such as, but not limited to the following
It is to be understood that the choice of cell type can be made on the basis of the susceptibility of those selected cells to the drug that forms the conjugate, and the relative expression of the cell surface receptor or target antigen. The test conjugates were conjugates of a cell surface receptor or target antigen binding compound and PBD prodrugs, poly-PBD prodrugs, and mixed PBDs, as described herein. The test cells were exposed to varying concentrations of the conjugates, and optionally also in the absence or presence of at least a 100-fold excess of the unconjugated cell surface receptor or target antigen binding compound for competition studies to assess activity as being specific to the cell surface receptor or target antigen.
KB cells were seeded in individual 24-well Falcon plates and allowed to form nearly confluent monolayers overnight in folate free Roswell Park Memorial Institute (FFRPMI)/Heat-Inactivated Fetal Calf Serum (HIFCS). Thirty minutes prior to the addition of folate-conjugate, spent medium was aspirated from all wells and replaced with either fresh FFRPMI or FFRPMI supplemented with 100 μM folic acid. […] Cells were pulsed for 2 h at 37° C., rinsed 4 times with 0.5 mL of medium and then chased in 1 mL of fresh medium up to 72 h. Spent medium was aspirated from all wells and replaced with fresh medium containing 5 μCi/mL of ^3H-thymidine. Following a 2 h incubation at 37° C., cells were washed 3 times with 0.5 mL of PBS and then treated with 0.5 mL of ice-cold 5% trichloroacetic acid per well. After 15 min, the trichloroacetic acid was aspirated and the cells solubilized by the addition of 0.5 mL of 0.25 N sodium hydroxide for 15 min at room temperature. Four hundred and fifty […] of each solubilized sample were transferred to scintillation vials containing 3 mL of Ecolume scintillation cocktail and counted in a liquid scintillation counter. Final results were expressed as the percentage of ^3H-thymidine incorporation relative to untreated controls.

[1] = Toxicity in KB tumor bearing mice; format: in vivo; settings: 0.5 μmol/kg, once a week for two weeks
Experimental: The percentage weight change of the test animals was determined on selected days post-tumor inoculation (PTI), and during dosing. The results were graphed.

[2] = with excess folate (100 μM folic acid)
[3] = without excess folate, 2 h pulse, chase up to 72 h

## C=C1C[C@H]2C=Nc3cc(OCCCCCOc4cc5c(cc4OC)C(=O)N4CC(=C)C[C@H]4C(=O)N5COC(=O)CCCSSC[C@@H](NC(=O)[C@H](CCC(=O)NC[C@H](O)[C@@H](O)[C@H](O)[C@H](O)CO)NC(=O)[C@@H](CCC(=O)O)NC(=O)[C@H](CCC(=O)NC[C@H](O)[C@@H](O)[C@H](O)[C@H](O)CO)NC(=O)[C@@H](CCC(=O)O)NC(=O)[C@H](CCC(=O)NC[C@H](O)[C@@H](O)[C@H](O)[C@H](O)CO)NC(=O)CC[C@H](NC(=O)c4ccc(NCc5cnc6nc(N)[nH]c(=O)c6n5)cc4)C(=O)O)C(=O)O)c(OC)cc3C(=O)N2C1 [Conjugate 9]
KB tumor; 1 μmol/kg
  PRs (partial responses): 0%
KB cells; [2]
  IC50: 67 nM
KB cells; [3]
  IC50: 0.8 nM

## C=C1CC(/C=N/OC)N(C(=O)c2cc(OC)c(OCCCCCOc3cc4c(cc3OC)C(=O)N3CC(=C)C[C@H]3C=N4)cc2NC(=O)OCC(C)(C)SSCCC(=O)NCCNC(=O)CCN2C(=O)CC(SC[C@H](NC(=O)[C@H](CC(=O)O)NC(=O)[C@H](CC(=O)O)NC(=O)[C@H](CCCNC(=N)N)NC(=O)[C@H](CC(=O)O)NC(=O)CC[C@H](NC(=O)c3ccc(NCc4cnc5nc(N)[nH]c(=O)c5n4)cc3)C(=O)O)C(=O)O)C2=O)C1 (some centres unmarked) [Conjugate 18]
KB tumor; 0.5 μmol/kg SIW for two weeks
  KB tumor size compared to untreated control: decreased KB tumor size
KB cells; [2]
  IC50: 2 nM
KB cells; [3]
  IC50: 0.065 nM

## C=C1C[C@H]2C=Nc3cc(OCCCCCOc4cc(N)c(C(=O)N5CC(=C)C[C@H]5C5OCCN5C(=O)OCC(C)(C)SSCCC(=O)NCCNC(=O)CCOCCOCCOCCOCCOCCOCCOCCOCCOCCOCCOCCOCCOCCOCCOCCOCCOCCOCCOCCOCCOCCOCCOCCOCCOCCOCCOCCOCCOCCOCCOCCOCCOCCOCCOCCOCCNC(=O)CCN5C(=O)CC(SC[C@H](NC(=O)[C@H](CC(=O)O)NC(=O)[C@H](CC(=O)O)NC(=O)[C@H](CCCNC(=N)N)NC(=O)[C@H](CC(=O)O)NC(=O)CC[C@H](NC(=O)c6ccc(NCc7cnc8nc(N)[nH]c(=O)c8n7)cc6)C(=O)O)C(=O)O)C5=O)cc4OC)c(OC)cc3C(=O)N2C1 (some centres unmarked) [Conjugate 7]
KB tumor; 0.5 μmol/kg
  cures: 100%
KB cells; [2]
  IC50: 5 nM
KB cells; [3]
  IC50: 0.13 nM

## C=C1C[C@H]2[C@H](O)N(C(=O)OCC(C)SSC[C@H](CC(=O)[C@H](CC(=O)O)NC(=O)[C@H](CC(=O)O)NC(=O)[C@H](CCCNC(=N)N)NC(=O)[C@H](CC(=O)O)NC(=O)CC[C@H](NC(=O)c3ccc(NCc4cnc5nc(N)[nH]c(=O)c5n4)cc3)C(=O)O)C(=O)O)c3cc(OCCCCCOc4cc5c(cc4OC)C(=O)N4CC(=C)C[C@H]4[C@H](O)N5C(=O)OCC(C)SSC[C@H](NC(=O)[C@H](CC(=O)O)NC(=O)[C@H](CC(=O)O)NC(=O)[C@H](CCCNC(=N)N)NC(=O)[C@H](CC(=O)O)NC(=O)CC[C@H](NC(=O)c4ccc(NCc5cnc6nc(N)[nH]c(=O)c6n5)cc4)C(=O)O)C(=O)O)c(OC)cc3C(=O)N2C1 (some centres unmarked) [Conjugate 2]
KB tumor; 0.5 μmol/kg
  cures: 100%
KB cells; [2]
  IC50: 16 nM
KB cells; [3]
  IC50: 0.14 nM

## C=C1C[C@H]2C=Nc3cc(OCCCCCOc4cc5c(cc4OC)C(=O)N4CC(=C)C[C@H]4[C@H](O)N5C(=O)OCCSSC[C@H](NC(=O)[C@H](CC(=O)O)NC(=O)[C@H](CC(=O)O)NC(=O)[C@H](CCCNC(=N)N)NC(=O)[C@H](CC(=O)O)NC(=O)CC[C@H](NC(=O)c4ccc(NCc5cnc6nc(N)[nH]c(=O)c6n5)cc4)C(=O)O)C(=O)O)c(OC)cc3C(=O)N2C1 [Conjugate 3]
KB tumor; 0.5 μmol/kg
  complete responses: 100%
KB cells; [2]
  IC50: 3 nM
KB cells; [3]
  IC50: 0.039 nM
[1]
  day on which mice had to be euthanized due to toxicity: 48 days

## C=C1C[C@H]2C=Nc3cc(OCCCCCOc4cc(N)c(C(=O)N5CC(=C)C[C@H]5C5OCCN5C(=O)OCC(C)(C)SSCCC(=O)NCCNC(=O)CCOCCOCCOCCOCCNC(=O)CCN5C(=O)CC(SC[C@@H](NC(=O)[C@H](CCC(=O)NC[C@H](O)[C@@H](O)[C@H](O)[C@H](O)CO)NC(=O)[C@@H](CCC(=O)O)NC(=O)[C@H](CCC(=O)NC[C@H](O)[C@@H](O)[C@H](O)[C@H](O)CO)NC(=O)[C@@H](CCC(=O)O)NC(=O)[C@H](CCC(=O)NC[C@H](O)[C@@H](O)[C@H](O)[C@H](O)CO)NC(=O)CC[C@H](NC(=O)c6ccc(NCc7cnc8nc(N)[nH]c(=O)c8n7)cc6)C(=O)O)C(=O)O)C5=O)cc4OC)c(OC)cc3C(=O)N2C1 (some centres unmarked) [Conjugate 6]
KB tumor; 0.5 μmol/kg
  complete responses: 50%
  cures: 50%
KB cells; [2]
  IC50: 3 nM
KB cells; [3]
  IC50: 0.048 nM

## C=C1C[C@H]2C=Nc3cc(OCCCCCOc4cc(NC(=O)OCCSSC[C@H](NC(=O)[C@H](CC(=O)O)NC(=O)[C@H](CC(=O)O)NC(=O)[C@H](CCCNC(=N)N)NC(=O)[C@H](CC(=O)O)NC(=O)CC[C@H](NC(=O)c5ccc(NCc6cnc7nc(N)[nH]c(=O)c7n6)cc5)C(=O)O)C(=O)O)c(C(=O)N5CC(=C)C[C@H]5/C=N/OC)cc4OC)c(OC)cc3C(=O)N2C1 [Conjugate 16]
KB tumor; 0.5 μmol/kg
  complete responses: 40%
  cures: 60%
KB cells; [2]
  IC50: 5 nM
KB cells; [3]
  IC50: 0.07 nM

## C=C1C[C@H]2C=Nc3cc(OCCCCCOc4cc(N)c(C(=O)N5CC(=C)C[C@H]5C5OCCN5C(=O)OCC(C)SSC[C@H](NC(=O)[C@H](CC(=O)O)NC(=O)[C@H](CC(=O)O)NC(=O)[C@H](CCCNC(=N)N)NC(=O)[C@H](CC(=O)O)NC(=O)CC[C@H](NC(=O)c5ccc(NCc6cnc7nc(N)[nH]c(=O)c7n6)cc5)C(=O)O)C(=O)O)cc4OC)c(OC)cc3C(=O)N2C1 (some centres unmarked) [Conjugate 4]
KB tumor; 0.5 μmol/kg
  cures: 100%
KB cells; [2]
  IC50: 6 nM
KB cells; [3]
  IC50: 0.049 nM

## C=C1C[C@H]2C=Nc3cc(OCCCCCOc4cc(N)c(C(=O)N5CC(=C)C[C@H]5C5CCCN5C(=O)OC[C@@H](SSC[C@H](NC(=O)[C@H](CC(=O)O)NC(=O)[C@H](CC(=O)O)NC(=O)[C@H](CCCNC(=N)N)NC(=O)[C@H](CC(=O)O)NC(=O)CC[C@H](NC(=O)c5ccc(NCc6cnc7nc(N)[nH]c(=O)c7n6)cc5)C(=O)O)C(=O)O)C(C)C)cc4OC)c(OC)cc3C(=O)N2C1 (some centres unmarked) [Conjugate 12]
KB tumor; 0.5 μmol/kg
  PRs (partial responses): 100%
[1]
  day on which mice had to be euthanized due to toxicity: 40 days

## C=C1C[C@H]2C=Nc3cc(OCCCCCOc4cc(N)c(C(=O)N5CC(=C)C[C@H]5C5OCCN5C(=O)OCC(C)(C)SSCCC(=O)NCCNC(=O)CCOCCOCCOCCOCCOCCOCCOCCOCCOCCOCCOCCOCCNC(=O)CCN5C(=O)CC(SC[C@H](NC(=O)[C@H](CC(=O)O)NC(=O)[C@H](CC(=O)O)NC(=O)[C@H](CCCNC(=N)N)NC(=O)[C@H](CC(=O)O)NC(=O)CC[C@H](NC(=O)c6ccc(NCc7cnc8nc(N)[nH]c(=O)c8n7)cc6)C(=O)O)C(=O)O)C5=O)cc4OC)c(OC)cc3C(=O)N2C1 (some centres unmarked) [Conjugate 8]
KB tumor; 0.2 μmol/kg
  cures: 100%
KB cells; [2]
  IC50: 0.3 nM
KB cells; [3]
  IC50: 0.055 nM
